{"source": "ChEMBL document CHEMBL1201862", "about": "“PubChem BioAssay data set” (2004)", "key": {"Kallikrein-7": {"biological_target": "Kallikrein-7 (Homo sapiens, UniProt P49862)", "experiment": "Fluorescence Intensity-based biochemical primary high throughput dose response assay to identify activators of kallikrein-7 (K7) zymogen."}, "[1]": {"experiment": "blockers of HIV-1 envelope-mediated cell-cell fusion – cherry-pick, dose response (AID 652057)", "format": "functional, cell-based"}, "[2]": {"experiment": "off-target signal loss in HeLa-CEM21 co-culture – HeLa F-luc CTL cells, cherry-picked, counter-screen for HIV-1 Env fusion inhibitor project, dose response (AID 652040);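 further: potency for signal decrease marking cytotoxic or nonspecific inhibition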", "format": "functional, cell-based"}, "[3]": {"experiment": "blockers of HIV-1 ZM109 envelope-driven cell-cell fusion – HeLa effector, CEM target cells, luciferase, cherry-pick, dose response (AID 652058)", "format": "functional, cell-based"}, "Vero": {"test_system": "Vero", "experiment": "cells", "format": "functional", "conditions": "Chlorocebus sabaeus"}, "[4]": {"experiment": "blockers of bursicon-stimulated LGR2 cAMP reporter – cell-based, HEK293, CRE-luciferase reporter, cherry pick, set 2, dose response (AID 743343);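 further: transfected cells were stimulated with diluted bursicon conditioned medium after compound addition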", "format": "functional"}, "[5]": {"experiment": "viability loss in HEK293 cells – cell-based, plate reader, cherry-picked samples, cytotoxicity control, dose response (AID 743446)", "format": "functional"}, "[6]": {"experiment": "blockade of melanocortin 4 receptor signaling – cell-based, plate reader, cherry pick, counter-screen for LGR2 antagonist project, dose response (AID 743444);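 further: transfected HEK 293 cells stimulated with alpha-MSH peptide; potency of inhibitors of the alpha-MSH evoked signal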", "format": "functional"}, "Major prion protein": {"biological_target": "Major prion protein (Homo sapiens, UniProt P04156)", "format": "functional, cell-based"}, "[7]": {"experiment": "potency of ADAM10 substrate cleavage blockers – biochemical, QFRET, dose response (AID 743254);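 further: ADAM10 enzyme with the DM2 quenched FRET peptide as substrate; EDANS fluorescence gain as the protease cuts the substrate; inhibitor potency against ADAM10 proteolytic activity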"}, "[8]": {"biological_target": "Disintegrin and metalloproteinase domain-containing protein 17 (Homo sapiens, UniProt P78536)", "experiment": "inhibition of ADAM17 substrate cleavage – biochemical, quenched FRET substrate, counter-screen for ADAM10 exosite inhibitor project, dose response (AID 743253)"}, "[9]": {"biological_target": "NAD-dependent protein deacylase sirtuin-5, mitochondrial (Homo sapiens, UniProt Q9NXA8)", "experiment": "sirtuin-5 deacylation blockers, concentration series – biochemical, fluorescence imaging, cherry-pick, set 5, dose response (AID 720591);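 further: desuccinylation of succinyl peptide AMC substrate read as fluorescence after trypsin release; potency of inhibitors that lower fluorescence and may act on trypsin instead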"}, "[10]": {"experiment": "HIV-1 AD8 envelope cell-cell fusion blockers – cherry-pick, dose response (AID 652062);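 further: potency is for inhibitors of fusion seen as a drop in luminescence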", "format": "functional, cell-based"}, "[11]": {"experiment": "viability loss in CEM21 cells – cell-based, CellTiter-Glo luminescence, cherry-picked, cytotoxicity control for viral fusion inhibitor project, dose response (AID 652042);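 further: potency for signal decrease meaning cytotoxicity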", "format": "functional"}}, "note": "The source made the active and inactive calls."}
{"smiles": "Cc1oc2c(C)c3oc(=O)c(CCC(=O)NCCCCCC(=O)O)c(C)c3cc2c1C", "values": [{"measurement": "EC50", "setting": "Kallikrein-7", "value": "> 69.5 µM (inactive)"}]}
{"smiles": "CCN(CC)C(=O)c1ncn2c1C(=O)NC[C@@H]2C", "values": [{"measurement": "AC50", "setting": "[1]", "value": "8.99 µM (active)"}, {"measurement": "AC50", "setting": "[2]", "value": "24.7 µM (active)"}, {"measurement": "AC50", "setting": "[3]", "value": "9.08 µM (active)"}]}
{"smiles": "CCCCN(CCCNC(=O)c1ccc2c(c1)NC(=O)CN2C)c1ccccc1", "values": [{"measurement": "CC50", "setting": "Vero", "value": "> 25 µM (active)"}, {"measurement": "AC50", "setting": "[4]", "value": "21.6 µM (active)"}, {"measurement": "AC50", "setting": "[5]", "value": "16.7 µM (active)"}, {"measurement": "AC50", "setting": "[6]", "value": "23.9 µM (active)"}]}
{"smiles": "Cc1nc(SCCC(=O)O)c2ccccc2n1", "values": [{"measurement": "IC50", "setting": "Major prion protein", "value": "0.915 µM (active)"}, {"measurement": "IC50", "setting": "cells", "value": "> 138 µM (inactive)"}]}
{"smiles": "CC(=O)c1cc2c(cc1NS(=O)(=O)c1ccccc1Br)OCO2", "values": [{"measurement": "EC50", "setting": "Kallikrein-7", "value": "66.2 µM (inactive)"}]}
{"smiles": "COc1ccc(OC(F)(F)F)cc1CC1(C)C(=O)Nc2ccc(-c3ccsc3)cc21", "note": "(stereo not given)", "values": [{"measurement": "IC50", "setting": "[7]", "value": "8.48 µM (active)"}, {"measurement": "IC50", "setting": "[8]", "value": "> 69.5 µM (inactive)"}]}
{"smiles": "CCCCC[C@H](C)N1C[C@@H](COCc2ccccc2)Oc2cc(N3CCC[C@H]3CO)ccc2S1(=O)=O", "values": [{"measurement": "AC50", "setting": "[9]", "value": "> 30 µM (inactive)"}]}
{"smiles": "COc1cc2oc(=O)cc(-c3ccc(-c4ccc(CO)cc4)cc3)c2c(OC)c1OC", "values": [{"measurement": "AC50", "setting": "[1]", "value": "12.1 µM (active)"}, {"measurement": "AC50", "setting": "[10]", "value": "13.2 µM (active)"}, {"measurement": "AC50", "setting": "[2]", "value": "8.61 µM (active)"}, {"measurement": "AC50", "setting": "[3]", "value": "5.08 µM (active)"}]}
{"smiles": "C[C@H]1CN([C@@H](C)CO)S(=O)(=O)c2ccc(-c3ccc(F)cc3)cc2O[C@H]1CN(C)Cc1cccc(F)c1", "values": [{"measurement": "AC50", "setting": "[1]", "value": "12.4 µM (active)"}, {"measurement": "AC50", "setting": "[11]", "value": "19.9 µM (active)"}]}
